# Measured values published in paper PMC5597302 (Angewandte Chemie (International ed. in English), 2016).
# Key:
# uPAR = uPAR (Homo sapiens, UniProt Q03405); conditions: read-out: affinity for uPAR; reported value; ref 8a; cited from earlier work
# [1] = test system: B16 melanoma cells expressing human uPAR; assay: B16-uPAR mouse allograft model; conditions: Dox 1 mpk
# Chain of uPAR (Q03405 23-335): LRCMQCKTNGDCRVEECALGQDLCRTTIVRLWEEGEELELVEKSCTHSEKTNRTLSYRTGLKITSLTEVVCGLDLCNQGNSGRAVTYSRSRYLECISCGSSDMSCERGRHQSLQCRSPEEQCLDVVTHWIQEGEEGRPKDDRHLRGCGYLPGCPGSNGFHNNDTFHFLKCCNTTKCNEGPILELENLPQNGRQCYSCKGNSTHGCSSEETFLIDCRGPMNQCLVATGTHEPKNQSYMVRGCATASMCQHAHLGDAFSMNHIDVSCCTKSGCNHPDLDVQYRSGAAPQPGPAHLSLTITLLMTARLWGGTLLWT
smiles,measurement,setting,value
O=C(O)c1cccc(Nc2cc(N3CCCCCC3)c3noc4c3c2C(=O)c2ccccc2-4)c1 [IPR-803],Kd,uPAR,0.2 µM
"COc1cccc2c1C(=O)c1c(O)c3c(c(O)c1C2=O)C[C@@](O)(C(=O)CO)C[C@@H]3O[C@H]1C[C@H](N)[C@H](O)[C@H](C)O1 [Dox, doxorubicin]",level of TGI relative to ARM-U2,"[1]; daily IP, combination ARM-U2 20 mpk and Dox 1 mpk",comparable
same,body weight loss,"[1]; throughout the experiments, ARM-U2 20 or 100 mpk",significant levels of weight loss
